# Assay results: patent publication US8912227B1, “Bicyclic pyrrole derivatives useful as agonists of GPR120” (Janssen Pharmaceutica NV, priority 2014, dated 2014)
# Legend:
# Human GPR120 short form [1] = target: T1, Human GPR120 short form (Homo sapiens, UniProt Q5NUL3); experiment: Human GPR120 calcium flux assay, Procedure Calcium B; assay type: cell-based; settings: HEK-293 cells expressing human GPR120 short form, 4200 cells/well, FLIPR
# T1 construct: expressed in transfected cells
# T1 sequence (Q5NUL3 1-361): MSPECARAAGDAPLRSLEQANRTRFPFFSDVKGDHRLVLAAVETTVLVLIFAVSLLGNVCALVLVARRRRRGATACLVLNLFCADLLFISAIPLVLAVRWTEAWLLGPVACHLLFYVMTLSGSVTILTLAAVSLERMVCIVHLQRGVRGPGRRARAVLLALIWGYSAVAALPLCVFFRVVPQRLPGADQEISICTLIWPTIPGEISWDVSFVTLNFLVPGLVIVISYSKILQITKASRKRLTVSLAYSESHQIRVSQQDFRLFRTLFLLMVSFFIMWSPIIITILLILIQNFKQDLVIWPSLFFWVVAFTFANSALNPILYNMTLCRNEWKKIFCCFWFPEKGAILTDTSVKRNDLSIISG
# Source text: (§1) This in vitro assay serves to assess test compound agonist activity against the short splice variant (SVS with Accession number NM_001195755.1 confirmed by sequencing data) of the GPR120 receptor. The Human Short splice variant #2 (NM_001195755.1) is missing an in-frame coding exon compared to variant 1 (the Human Long splice variant NM_181745.3), resulting in a shorter isoform (GPR120-S) lacking a 16 aa protein segment compared to isoform GPR120-L. The assay platform utilizes HEK-293 cells stably transfected to express the Human GPR120 short form. These cells are first loaded with the Ca^+2 sensitive dye, Fluo-4 NW. Upon stimulation, intracellular released Ca^+2 can bind to the dye and alter its fluorescence intensity. This increase in fluorescence signal, and thus the flux in intracellular [Ca^2+], is detected and quantitated by fluorescence imaging using a FLIPR reader. The effect of the agonist is measured as a function of concentration and used to calculate an EC50 based upon a response curve.
# In this procedure 4200 cells/well were employed.
# (§2) A Human GPR120 clone (Genbank accession number NM_001195755.1) was placed into the pcDNA3.1 mammalian expression vector carrying the neomycin resistance gene. A stable mammalian cell was generated by placing the above clone into a HEK293 background. Clonal cells responding to long chain fatty acids had expression levels of GPR120 confirmed by RT-qPCR. Human HEK-GPR120 cells were cultured in Dulbecco's Modified Eagle's Medium (DMEM)/F12 medium supplemented with 10% fetal bovine serum (FBS), 1% L-Glutamine and 1% penicillin/streptomycin and 0.5 mg/ml G-418. Cells were split 2 times a week to keep the cells in the log-phase growth.
# (§3) In preparation for the assay, HEK cells stably transfected with Human GPR120 (2.5K cells per well in 25 uL growth medium) were seeded into 384-well plates and then incubated overnight (37° C., 5% CO2). The next day, the media was changed to 20 μl assay buffer and the cell starved for 1 h at 37° C. The dye loading solution (2× dye) was prepared using 10 ml assay buffer, 100 μl of 250 mM probenecid, 1 bottle of Component A, and 20 μl of dye in DMSO. Twenty μl of the 2× dye loading buffer was then added to each well. The plates were incubated at 37° C. for 30 min, then at room temperature for an additional 15 minutes, before performing the assay on FLIPR.
# (§4) Test compounds were prepared in assay buffer (2 μl of test compound+198 μl assay buffer, final DMSO in assay plate is 0.2%) at the desired concentration, more particularly at 100 μM, 50 μM, 25 μM, 12.5 μM, 6.25 μM, 3.125 μM, 1.562 μM, 0.781 μM, 0.391 μM, 0.195 μM, 0.098 μM, 0.049 μM, 0.024 μM and 0.012 μM.
# (§5) The assay was performed on a FLIPR plate reader using the following parameters. Baseline was read for 10 seconds at 1 sec intervals. The program was set to transfer 10 μL of ligand from compound plate to cell plate after baseline reading. Aspiration was executed at: 10 μl/sec speed, 4.6 μl height; Dispensing was executed at: 30 μl/sec speed, 45 μl height. After compound addition, each well was read for 300 sec, with measurements collected at 1 sec intervals.
# (§6) The kinetic data from the FLIPR was based upon a 5 minute window for data collection. The fluorescence of each sample well was used for individual calculations of a normalized RFU value, which was defined as maximum response minus the minimum response. The normalized fluorescence reading (RFU) was calculated as follows: RFU=Fmax−Fmin
# (§7) The data were fitted to a sigmoidal dose-response curve with a variable Hill slope (<2) using nonlinear regression with GraphPad Prism 5.0 to calculate the EC50 values. The Fitting Equation was: Y=Bottom+(Top−Bottom)/(1+10^((LogEC50−X)*HillSlope)), where X is the log of the concentration and Y is the response.
# Human GPR120 short form [2] = target: T1, Human GPR120 short form; experiment: Human GPR120 calcium flux assay, Procedure Calcium A; assay type: cell-based; settings: HEK-293 cells expressing human GPR120 short form, 2500 cells/well, FLIPR
# Source text: as §1
# In this procedure 2500 cells/well were employed.
# as §2, §3, §4, §5, §6, §7
Compound,EC50 (Human GPR120 short form [1]) [nM],EC50 (Human GPR120 short form [2]) [nM]
"Cc1c(CCCO)ccc(OCc2c(Cl)ccn2-c2ccc(Cl)cc2)c1C [Compound 7, 3-(4-{[3-Chloro-1-(4-chlorophenyl)-1H-pyrrol-2-yl]methoxy}-2,3-dimethylphenyl)propan-1-ol]",1170,1730
"COc1ccc(-n2ccc(C(F)(F)F)c2COc2ccc(CCC(=O)O)c(F)c2F)cn1 [Compound 57, 3-(2,3-difluoro-4-((1-(6-methoxypyridin-3-yl)-3-(trifluoromethyl)-1H-pyrrol-2-yl)methoxy)phenyl)propanoic acid trifluoroacetic acid]",77,840
"CCc1ccc(-n2ccc(C(F)(F)F)c2COc2ccc(CCCO)c(F)c2F)cn1 [Compound 54, 3-(4-[[1-(6-ethylpyridin-3-yl)-3-(trifluoromethyl)-1H-pyrrol-2-yl]methoxy]-2,3-difluorophenyl)propan-1-ol]",115,497
"O=C(O)CCc1cc(F)c(OCc2c(C(F)(F)F)ccn2-c2ccc(Br)cc2)c(F)c1 [Compound 22, 3-(4-{[1-(4-Bromophenyl)-3-(trifluoromethyl)-1H-pyrrol-2-yl]methoxy}-3,5-difluorophenyl)propanoic acid]",112,1520
"Cc1ccc(-n2ccc(C(F)(F)F)c2COc2ccc(CCC(=O)O)c(F)c2F)cn1 [Compound 53, 3-(2,3-Difluoro-4-{[1-(6-methylpyridin-3-yl)-3-(trifluoromethyl)-1H-pyrrol-2-yl]methoxy}phenyl)propanoic acid]",428,1990

# The remaining compounds from weak to strong by EC50 (Human GPR120 short form [1]), led by results:
EC50 (Human GPR120 short form [1]) [nM],EC50 (Human GPR120 short form [2]) [nM],Compound
1360,3710,"N#Cc1ccn(-c2ccc(Cl)cc2)c1COc1ccc(CCC(=O)O)c(F)c1F [Compound 9, 3-(4-{[1-(4-Chlorophenyl)-3-cyano-1H-pyrrol-2-yl]methoxy}-2,3-difluorophenyl)propanoic acid]"
199,1110,"Cc1c(CCC(=O)O)ccc(OCc2c(C(F)(F)F)ccn2-c2ccc(Br)cc2)c1C [Compound 23, 3-(4-{[1-(4-Bromophenyl)-3-(trifluoromethyl)-1H-pyrrol-2-yl]methoxy}-2,3-dimethylphenyl)propanoic acid]"
197,675,"COc1ccc(-n2ccc(C(F)(F)F)c2COc2c(F)cc(CCC(=O)O)cc2F)cn1 [Compound 51, 3-(3,5-difluoro-4-[[1-(6-methoxypyridin-3-yl)-3-(trifluoromethyl)-1H-pyrrol-2-yl]methoxy]phenyl)propanoic acid]"
34,215,"CCc1ccc(-n2ccc(C(F)(F)F)c2COc2c(F)cc(CCCO)cc2F)cn1 [Compound 55, 3-(4-[[1-(6-ethylpyridin-3-yl)-3-(trifluoromethyl)-1H-pyrrol-2-yl]methoxy]-3,5-difluorophenyl)propan-1-ol]"
